Key:
[1] = Binding affinity to recombinant Bcl-2 D129L mutant (unknown origin) using peptide probe incubated for 2 hrs by fluorescence based assay; parameters: species or system Homo sapiens
[2] = Binding affinity to recombinant Bcl-2 V113G mutant (unknown origin) using peptide probe incubated for 2 hrs by fluorescence based assay; parameters: species or system Homo sapiens
[3] = biological target: T1, Apoptosis regulator Bcl-2 (Homo sapiens, UniProt P10415); test: Displacement of synthetic peptide tracer conjugated to fluorescein isothiocyanate from C-terminal 6xHis-tagged Bcl-2 (1 to 204 residues) (unknown origin) preincubated for 1 hr followed by tracer addition measured after 20 mins by fluorescence polarization assay
T1 sequence (P10415 whole entry, the tested form may be a part): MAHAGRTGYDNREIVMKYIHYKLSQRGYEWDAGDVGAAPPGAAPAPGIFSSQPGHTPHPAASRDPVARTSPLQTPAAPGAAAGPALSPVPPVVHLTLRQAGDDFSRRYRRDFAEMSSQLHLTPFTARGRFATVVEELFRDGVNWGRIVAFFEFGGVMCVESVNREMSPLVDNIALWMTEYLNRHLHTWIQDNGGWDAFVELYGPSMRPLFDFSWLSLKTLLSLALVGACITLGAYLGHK

Bcl-2-like protein 1 [4] = biological target: T2, Bcl-2-like protein 1 (Homo sapiens, UniProt Q07817); test: Displacement of synthetic peptide tracer conjugated to fluorescein isothiocyanate from C-terminal 6xHis-tagged Bcl-xL (1 to 209 residues) (unknown origin) preincubated for 1 hr followed by tracer addition measured after 20 mins by fluorescence polarization assay
T2 sequence (Q07817 whole entry, the tested form may be a part): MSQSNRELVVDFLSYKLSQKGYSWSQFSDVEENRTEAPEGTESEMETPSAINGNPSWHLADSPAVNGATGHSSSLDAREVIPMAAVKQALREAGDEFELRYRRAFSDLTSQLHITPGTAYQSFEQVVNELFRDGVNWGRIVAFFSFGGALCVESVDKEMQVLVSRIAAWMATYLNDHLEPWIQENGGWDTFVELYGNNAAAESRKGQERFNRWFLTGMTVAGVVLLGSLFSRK

[5] = Solubility of the compound in aqueous buffer at physiological pH; format: physicochemical
[6] = biological target: T1, Apoptosis regulator Bcl-2; test: Binding affinity to human Bcl-2 assessed as inhibition constant incubated for 15 mins by competition fluorescence polarization assay
Bcl-2-like protein 1 [7] = biological target: T2, Bcl-2-like protein 1; test: Binding affinity to human Bcl-xL assessed as inhibition constant incubated for 15 mins by competition fluorescence polarization assay
[8] = biological target: T3, Induced myeloid leukemia cell differentiation protein Mcl-1 (Homo sapiens, UniProt Q07820); test: Binding affinity to human Mcl-1 assessed as inhibition constant incubated for 15 mins by competition fluorescence polarization assay
T3 sequence (Q07820 whole entry): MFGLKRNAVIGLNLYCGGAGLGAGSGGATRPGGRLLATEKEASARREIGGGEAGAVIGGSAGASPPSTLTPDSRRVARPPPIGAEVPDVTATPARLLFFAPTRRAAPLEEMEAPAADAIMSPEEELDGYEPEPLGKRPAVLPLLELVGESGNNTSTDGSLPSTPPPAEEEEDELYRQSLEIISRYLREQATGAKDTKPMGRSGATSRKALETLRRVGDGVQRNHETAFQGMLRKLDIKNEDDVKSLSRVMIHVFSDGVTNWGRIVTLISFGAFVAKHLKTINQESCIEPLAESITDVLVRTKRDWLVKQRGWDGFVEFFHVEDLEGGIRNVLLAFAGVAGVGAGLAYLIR

MOLT-4 = test: Cytotoxicity against human MOLT-4 cells assessed as cell growth inhibition incubated for 72 hrs; format: functional, cell-based; details: MOLT-4, 72 h
[9] = Cytotoxicity against human platelets assessed as cell growth inhibition incubated for 24 hrs; format: toxicity, cell-based, Platelet
[10] = biological target: Protein cereblon/Bcl-2-like protein 1 (Homo sapiens) (UniProt Q07817+Q96SW2); test: PROTAC activity at CRBN/Bcl-xL in human MOLT-4 cells assessed as induction of Bcl-xL degradation at 100 nM incubated for 16 hrs by Western blot assay relative to control; format: cell-based
Chain of Protein cereblon/Bcl-2-like protein 1 (Homo sapiens) (Q07817 whole entry, looked up): as the sequence (Q07817 whole entry, the tested form may be a part) above
Chain of Protein cereblon/Bcl-2-like protein 1 (Homo sapiens) (Q96SW2 whole entry, looked up): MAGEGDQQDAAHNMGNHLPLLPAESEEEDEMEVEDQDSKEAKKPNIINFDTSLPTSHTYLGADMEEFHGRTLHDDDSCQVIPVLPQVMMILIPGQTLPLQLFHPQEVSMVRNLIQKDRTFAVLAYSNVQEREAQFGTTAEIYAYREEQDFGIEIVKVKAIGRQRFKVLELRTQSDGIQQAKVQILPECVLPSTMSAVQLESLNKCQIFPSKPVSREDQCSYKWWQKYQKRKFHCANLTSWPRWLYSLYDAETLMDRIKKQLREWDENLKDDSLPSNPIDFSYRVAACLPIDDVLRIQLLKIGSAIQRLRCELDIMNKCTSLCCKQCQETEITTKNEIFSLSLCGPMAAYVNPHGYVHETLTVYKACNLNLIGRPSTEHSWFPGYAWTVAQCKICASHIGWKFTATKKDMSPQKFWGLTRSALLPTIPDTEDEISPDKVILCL

[11] = Selectivity ratio of IC50 for human platelets to IC50 for human MOLT-4 cells; format: toxicity; details: human platelets and human MOLT-4 cells
[12] = biological target: T4, von Hippel-Lindau disease tumor suppressor/Bcl-2-like protein 1 (Homo sapiens, UniProt P40337+Q07817); test: PROTAC activity at VHL/Bcl-xL in human MOLT-4 cells assessed as induction of Bcl-xL degradation incubated for 16 hrs by immunoblot assay; format: cell-based
T4 sequence (Q07817 whole entry): as the sequence (Q07817 whole entry, the tested form may be a part) above
T4 sequence (P40337 whole entry): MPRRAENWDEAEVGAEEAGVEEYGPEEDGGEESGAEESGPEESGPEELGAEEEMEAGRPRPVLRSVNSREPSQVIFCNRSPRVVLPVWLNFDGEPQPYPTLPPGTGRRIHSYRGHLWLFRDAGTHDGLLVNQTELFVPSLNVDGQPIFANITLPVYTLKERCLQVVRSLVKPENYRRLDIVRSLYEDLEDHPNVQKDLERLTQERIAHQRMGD

[13] = biological target: T5, von Hippel-Lindau disease tumor suppressor/Bcl-2-like protein 1 (Homo sapiens) (UniProt Q07817+P40337); test: PROTAC activity at VHL/Bcl-xL in human MOLT-4 cells assessed as induction of Bcl-xL degradation incubated for 16 hrs by immunoblot assay relative to control; format: cell-based
T5 sequence (P40337 whole entry, looked up): as the sequence (P40337 whole entry) above
T5 sequence (Q07817 whole entry, looked up): as the sequence (Q07817 whole entry, the tested form may be a part) above

[14] = biological target: T4, von Hippel-Lindau disease tumor suppressor/Bcl-2-like protein 1; test: PROTAC activity at VHL/Bcl-xL in human THP-1 cells assessed as induction of Bcl-xL degradation incubated for 24 hrs by Western blot assay; format: cell-based
[15] = biological target: T5, von Hippel-Lindau disease tumor suppressor/Bcl-2-like protein 1 (Homo sapiens); test: PROTAC activity at VHL/Bcl-xL in human THP-1 cells assessed as induction of Bcl-xL degradation incubated for 24 hrs by Western blot assay relative to control; format: cell-based
Bcl-2-like protein 1 [16] = biological target: T2, Bcl-2-like protein 1; test: Binding affinity to Bcl-xL (unknown origin) assessed as inhibition constant by fluorescence polarization assay
[17] = biological target: T1, Apoptosis regulator Bcl-2; test: Binding affinity to Bcl-2 (unknown origin) assessed as inhibition constant using 5-FAM-QEDIIRNIARHLAQVGDSMDRSIPPG as substrate
[18] = biological target: T3, Induced myeloid leukemia cell differentiation protein Mcl-1; test: Binding affinity to Mcl-1 (unknown origin) assessed as inhibition constant using 5-FAM-QEDIIRNIARHLAQVGDSMDRSIPPG as substrate
[19] = biological target: T1, Apoptosis regulator Bcl-2; test: Binding affinity to Bcl-2 (unknown origin) assessed as inhibition constant
Bcl-2-like protein 1 [20] = biological target: T2, Bcl-2-like protein 1; test: Binding affinity to Bcl-xL (unknown origin) assessed as inhibition constant

## Cc1c(N(C(=O)c2cc(-c3cc(Cl)ccc3C(=O)N3Cc4ccccc4C[C@H]3CN3CCOCC3)n(C)c2C)c2ccc(O)cc2)cc(C#N)n1C [VOB-560]
[1]
  Ki: 1 nM
[2]
  Ki: 9.6 nM

## CN(CCO)CC[C@H](CSc1ccccc1)Nc1ccc(S(=O)(=O)NC(=O)c2ccc(N3CCC([C@@H](O)c4ccccc4-c4ccc(Cl)cc4)CC3)cc2)cc1S(=O)(=O)C(F)(F)F
[3]
  IC50: 3.9 nM
Bcl-2-like protein 1 [4]
  IC50: 4.5 nM
[5]
  solubility: < 1 µg/mL

## CCN(CC)C[C@@H](O)CNc1ccc(NC[C@H]2CO2)c2c1C(=O)c1ccccc1C2=O
[6]
  Ki: 3.3 nM
Bcl-2-like protein 1 [7]
  Ki: > 500 nM
[8]
  Ki: > 550 nM

## CN(C)CC#Cc1ccc(OCCCc2sc(N3CCc4cccc(C(=O)Nc5nc6ccccc6s5)c4C3)nc2C(=O)O)c(F)c1 [A-1155463]
MOLT-4
  IC50: 6.2 nM
[9]
  IC50 at 24 h: 7.1 nM

## O=C1CCC(N2C(=O)c3cccc(NCCOCCOCc4cn(CCCC(=O)N5CCN(CC#Cc6ccc(OCCCc7sc(N8CCc9cccc(C(=O)Nc%10nc%11ccccc%11s%10)c9C8)nc7C(=O)O)c(F)c6)CC5)nn4)c3C2=O)C(=O)N1 (stereo not drawn)
[10]
  Emax: 85%
MOLT-4
  IC50: 51 nM
[9]
  IC50 at 24 h: 1140 nM
[11]
  selectivity ratio: 22

## Cc1ncsc1-c1ccc([C@H](C)NC(=O)[C@@H]2C[C@@H](O)CN2C(=O)[C@@H](NC(=O)CCCCCC(=O)N2CCN(CC[C@H](CSc3ccccc3)Nc3ccc(S(=O)(=O)NC(=O)c4ccc(N5CCN(CC6=C(c7ccc(Cl)cc7)CCC(C)(C)C6)CC5)cc4)cc3S(=O)(=O)C(F)(F)F)CC2)C(C)(C)C)cc1 [DT-2216]
[12]
  EC50: 63 nM
[13]
  Emax: 90.8%

## Cc1ncsc1-c1ccc(CNC(=O)[C@@H]2C[C@@H](O)CN2C(=O)[C@@H](NC(=O)CCOCCOCCOCCOCCOCCOCC#Cc2ccc(OCCCc3sc(N4CCc5cccc(C(=O)Nc6nc7ccccc7s6)c5C4)nc3C(=O)O)cc2)C(C)(C)C)cc1
[14]
  EC50: 4.8 nM
[15]
  Emax: 76%

## Cc1c(S(C)(=O)=O)c(-c2cc(F)cc(N3CCN(c4ccc(NS(=O)(=O)c5ccc(N[C@H](CCN6CCC(O)CC6)CSc6ccccc6)c(S(=O)(=O)C(F)(F)F)c5)cc4)CC3)c2)c(-c2ccc(Cl)cc2)n1C(C)C
Bcl-2-like protein 1 [16]
  Ki: < 1 nM

## N#Cc1ccc(CN2Cc3c(cc(Br)c(OCc4ccc(-c5ccccc5)cc4)c3Br)C[C@H]2C(=O)NS(=O)(=O)c2ccc(Cl)c([N+](=O)[O-])c2)cc1
[17]
  Ki: 0.45 nM
[18]
  Ki: 0.35 nM

## Cc1c(S(C)(=O)=O)c(-c2cc(F)cc(N3CCN(c4ccc(NS(=O)(=O)c5ccc(N[C@H](CCN6CCC(C(=O)OCCCP(=O)(O)O)CC6)CSc6ccccc6)c(S(=O)(=O)C(F)(F)F)c5)cc4)CC3)c2)c(-c2ccc(Cl)cc2)n1C(C)C [PELCITOCLAX]
[19]
  Ki: < 1 nM
Bcl-2-like protein 1 [20]
  Ki: < 1 nM
